# Experimental data: patent publication US20240109887A1 (Viva Star Biosciences (Suzhou) Co., Ltd., priority 2021, published 2024)
# Legend:
# KRAS G12D/SOS1 = target: T1, KRAS G12D/SOS1 (Homo sapiens, UniProt Q07889); assay: biochemical
# T1 sequence (Q07889 1-1333): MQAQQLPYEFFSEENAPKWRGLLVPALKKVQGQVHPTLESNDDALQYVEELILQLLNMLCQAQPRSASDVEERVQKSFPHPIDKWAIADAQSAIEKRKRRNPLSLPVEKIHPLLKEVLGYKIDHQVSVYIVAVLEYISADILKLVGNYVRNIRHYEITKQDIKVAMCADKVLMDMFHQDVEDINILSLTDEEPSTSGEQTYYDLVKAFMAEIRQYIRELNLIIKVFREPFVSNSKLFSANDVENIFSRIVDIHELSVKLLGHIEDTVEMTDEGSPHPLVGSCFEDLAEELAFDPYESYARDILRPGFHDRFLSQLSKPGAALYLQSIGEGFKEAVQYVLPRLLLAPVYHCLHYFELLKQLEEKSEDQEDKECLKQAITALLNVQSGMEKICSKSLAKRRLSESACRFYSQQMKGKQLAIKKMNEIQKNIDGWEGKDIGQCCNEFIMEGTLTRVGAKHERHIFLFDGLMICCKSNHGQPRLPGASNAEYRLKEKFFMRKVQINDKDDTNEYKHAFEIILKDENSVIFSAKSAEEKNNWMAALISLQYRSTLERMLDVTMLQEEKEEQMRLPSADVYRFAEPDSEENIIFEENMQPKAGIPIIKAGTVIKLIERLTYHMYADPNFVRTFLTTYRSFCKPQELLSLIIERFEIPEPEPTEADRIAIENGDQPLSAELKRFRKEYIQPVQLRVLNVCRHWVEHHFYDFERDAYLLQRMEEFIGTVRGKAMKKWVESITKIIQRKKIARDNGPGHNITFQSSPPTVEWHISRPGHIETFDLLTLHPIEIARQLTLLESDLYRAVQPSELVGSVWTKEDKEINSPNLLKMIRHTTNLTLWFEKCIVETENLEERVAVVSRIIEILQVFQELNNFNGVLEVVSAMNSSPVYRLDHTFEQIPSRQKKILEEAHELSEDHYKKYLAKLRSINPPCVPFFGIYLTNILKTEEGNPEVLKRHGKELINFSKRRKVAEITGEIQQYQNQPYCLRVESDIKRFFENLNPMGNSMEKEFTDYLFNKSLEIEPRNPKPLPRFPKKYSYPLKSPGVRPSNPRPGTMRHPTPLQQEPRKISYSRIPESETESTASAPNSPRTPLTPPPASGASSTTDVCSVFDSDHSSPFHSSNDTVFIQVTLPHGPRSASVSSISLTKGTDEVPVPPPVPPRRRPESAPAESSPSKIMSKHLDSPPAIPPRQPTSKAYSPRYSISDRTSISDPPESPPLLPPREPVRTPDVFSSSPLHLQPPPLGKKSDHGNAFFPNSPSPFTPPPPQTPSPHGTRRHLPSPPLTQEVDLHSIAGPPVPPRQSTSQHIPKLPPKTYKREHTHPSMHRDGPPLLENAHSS
# KRAS-WT/SOS1 = target: T2, KRAS-WT/SOS1 (Homo sapiens, UniProt Q07889); assay: biochemical
# T2 sequence (Q07889 1-1333): T1 sequence (Q07889 1-1333)
structure (smiles),measurement,setting,value
"C[C@@H](NC(=O)c1cn(C2(C)CC2)c(=O)c2c[nH]nc12)c1cccc2c1CCC2(F)F [Example 4, (R)-N-(1-(1,1-difluoro-2,3-dihydro-1H-inden-4-yl)ethyl)-5-(1-methylcyclopropyl)-4-oxo-4,5-dihydro-2H-pyrazolo[4,3-c]pyridine-7-carboxamide]",IC50,KRAS G12D/SOS1,< 100 nM
same,IC50,KRAS-WT/SOS1,< 100 nM
"C[C@@H](NC(=O)c1cn(C2(C)CC2)c(=O)c2c[nH]nc12)c1cccc(C(F)(F)CO)c1 [Example 5, (R)-N-(1-(3-(1,1-difluoro-2-hydroxyethyl)phenyl)ethyl)-5-(1-methylcyclopropyl)-4-oxo-4,5-dihydro-2H-pyrazolo[4,3-c]pyridine-7-carboxamide]",IC50,KRAS G12D/SOS1,< 100 nM
same,IC50,KRAS-WT/SOS1,< 100 nM
"Cc1c([C@@H](C)NC(=O)c2cn(C3(C)CC3)c(=O)c3cn[nH]c23)cccc1C(F)(F)F [Example 6, (R)-N-(1-(2-methyl-3-(trifluoromethyl)phenyl)ethyl)-5-(1-methylcyclopropyl)-4-oxo-4,5-dihydro-1H-pyrazolo[4,3-c]pyridine-7-carboxamide]",IC50,KRAS G12D/SOS1,100 to 500 nM
same,IC50,KRAS-WT/SOS1,< 100 nM
"C[C@@H](NC(=O)c1cn(C2(C)CC2)c(=O)c2cn[nH]c12)c1cccc(C(C)(F)F)c1F [Example 7, (R)-N-(1-(3-(1,1-difluoroethyl)-2-fluorophenyl)ethyl)-5-(1-methylcyclopropyl)-4-oxo-4,5-dihydro-1H-pyrazolo[4,3-c]pyridine-7-carboxamide]",IC50,KRAS G12D/SOS1,100 to 500 nM
same,IC50,KRAS-WT/SOS1,< 100 nM
"CNCc1ccccc1-c1ccc([C@@H](C)NC(=O)c2cn(C3(C)CC3)c(=O)c3cn[nH]c23)s1 [Example 9, (R)-N-(1-(5-(2-((methylamino)methyl)phenyl)thiophen-2-yl)ethyl)-5-(1-methylcyclopropyl)-4-oxo-4,5-dihydro-1H-pyrazolo[4,3-c]pyridine-7-carboxamide]",IC50,KRAS G12D/SOS1,< 100 nM
same,IC50,KRAS-WT/SOS1,< 100 nM
"CC(=O)N1CCC(n2cc(C(=O)N[C@H](C)c3cccc4c3CCC4(F)F)c3n[nH]cc3c2=O)CC1 [Example 10, (R)-5-(1-acetylpiperidin-4-yl)-N-(1-(1,1-difluoro-2,3-dihydro-1H-inden-4-yl)ethyl)-4-oxo-4,5-dihydro-2H-pyrazolo[4,3-c]pyridine-7-carboxamide]",IC50,KRAS G12D/SOS1,< 100 nM
same,IC50,KRAS-WT/SOS1,< 100 nM
"C[C@@H](NC(=O)c1cn(C2CC(F)(F)C2)c(=O)c2cn[nH]c12)c1cccc2c1CCC2(F)F [Example 13, (R)—N-(1-(1,1-difluoro-2,3-dihydro-1H-inden-4-yl)ethyl)-5-(3,3-difluorocyclobutyl)-4-oxo-4,5-dihydro-1H-pyrazolo[4,3-c]pyridine-7-carboxamide]",IC50,KRAS G12D/SOS1,< 100 nM
same,IC50,KRAS-WT/SOS1,< 100 nM
"C[C@@H](NC(=O)c1cn(C2CC(F)(F)C2)c(=O)c2cn[nH]c12)c1cccc(C(F)(F)F)c1 [Example 14, (R)-5-(3,3-difluorocyclobutyl)-4-oxo-N-(1-(3-(trifluoromethyl)phenyl)ethyl)-4,5-dihydro-1H-pyrazolo[4,3-c]pyridine-7-carboxamide]",IC50,KRAS G12D/SOS1,100 to 500 nM
same,IC50,KRAS-WT/SOS1,100 to 500 nM
"CNCc1ccccc1-c1csc([C@@H](C)NC(=O)c2cn(C3CC(F)(F)C3)c(=O)c3cn[nH]c23)c1 [Example 15, 5-(3,3-difluorocyclobutyl)-N-[(1R)-1-(4-{2-[(methylamino)methyl]phenyl}thiophen-2-yl)ethyl]-4-oxo-1H,4H,5H-pyrazolo[4,3-c]pyridine-7-carboxamide]",IC50,KRAS G12D/SOS1,< 100 nM
same,IC50,KRAS-WT/SOS1,< 100 nM
"COc1c(N2CCOCC2)cc(C(=O)N[C@H](C)c2cccc3c2CCC3(F)F)c2n[nH]cc12 [Example 18, N-[(1R)-1-(1,1-difluoro-2,3-dihydro-1H-inden-4-yl)ethyl]-4-methoxy-5-(morpholin-4-yl)-2H-indazole-7-carboxamide]",IC50,KRAS G12D/SOS1,< 100 nM
same,IC50,KRAS-WT/SOS1,< 100 nM
"COc1c(CN(C)C)cc(C(=O)N[C@H](C)c2cccc3c2CCC3(F)F)c2n[nH]cc12 [Example 19, N-[(1R)-1-(1,1-difluoro-2,3-dihydro-1H-inden-4-yl)ethyl]-5-[(dimethylamino)methyl]-4-methoxy-2H-indazole-7-carboxamide]",IC50,KRAS G12D/SOS1,100 to 500 nM
same,IC50,KRAS-WT/SOS1,100 to 500 nM
"COc1c(CN(C)C)cc(C(=O)N[C@H](C)c2cccc(C(F)(F)CO)c2)c2n[nH]cc12 [Example 20, N-[(1R)-1-[3-(1,1-difluoro-2-hydroxyethyl)phenyl]ethyl]-5-[(dimethylamino)methyl]-4-methoxy-2H-indazole-7-carboxamide]",IC50,KRAS G12D/SOS1,100 to 500 nM
same,IC50,KRAS-WT/SOS1,100 to 500 nM
"Cc1c[nH]c2c(C(=O)N[C@H](C)c3cccc4c3CCC4(F)F)cn(C3(C)CC3)c(=O)c12 [Example 21, (R)—N-(1-(1,1-difluoro-2,3-dihydro-1H-inden-4-yl)ethyl)-3-methyl-5-(1-methylcyclopropyl)-4-oxo-4,5-dihydro-1H-pyrrolo[3,2-c]pyridine-7-carboxamide]",IC50,KRAS G12D/SOS1,100 to 500 nM
same,IC50,KRAS-WT/SOS1,< 100 nM
"COc1c(-c2cnc[nH]2)cc(C(=O)N[C@H](C)c2cccc3c2CCC3(F)F)c2n[nH]cc12 [Example 22, N-[(1R)-1-(1,1-difluoro-2,3-dihydro-1H-inden-4-yl)ethyl]-5-(1H-imidazol-5-yl)-4-methoxy-2H-indazole-7-carboxamide]",IC50,KRAS G12D/SOS1,100 to 500 nM
same,IC50,KRAS-WT/SOS1,100 to 500 nM
"COc1c(-c2cnc[nH]2)cc(C(=O)N[C@H](C)c2cccc(C(F)(F)CO)c2)c2n[nH]cc12 [Example 23, N-[(1R)-1-[3-(1,1-difluoro-2-hydroxyethyl)phenyl]ethyl]-5-(1H-imidazol-5-yl)-4-methoxy-2H-indazole-7-carboxamide]",IC50,KRAS G12D/SOS1,100 to 500 nM
same,IC50,KRAS-WT/SOS1,100 to 500 nM
"COc1c(C(C)N)cc(C(=O)N[C@H](C)c2cccc3c2CCC3(F)F)c2n[nH]cc12 (stereo partly drawn) [Example 24, 5-(1-aminoethyl)-N—((R)-1-(1,1-difluoro-2,3-dihydro-1H-inden-4-yl)ethyl)-4-methoxy-2H-indazole-7-carboxamide]",IC50,KRAS G12D/SOS1,100 to 500 nM
same,IC50,KRAS-WT/SOS1,100 to 500 nM
"COc1c(O[C@H]2CCOC2)cc(C(=O)N[C@H](C)c2cccc(C(F)(F)F)c2)c2n[nH]cc12 [Example 27, 4-methoxy-5-(((S)-tetrahydrofuran-3-yl)oxy)-N—((R)-1-(3-(trifluoromethyl)phenyl)ethyl)-2H-indazole-7-carboxamide]",IC50,KRAS G12D/SOS1,100 to 500 nM
same,IC50,KRAS-WT/SOS1,100 to 500 nM
"COc1c(O[C@H]2CCOC2)cc(C(=O)N[C@H](C)c2cc(N)cc(C(F)(F)F)c2)c2n[nH]cc12 [Example 28, N-((R)-1-(3-amino-5-(trifluoromethyl)phenyl)ethyl)-4-methoxy-5-(((S)-tetrahydrofuran-3-yl)oxy)-2H-indazole-7-carboxamide]",IC50,KRAS G12D/SOS1,100 to 500 nM
same,IC50,KRAS-WT/SOS1,100 to 500 nM
"COc1c(O[C@H]2CCOC2)cc(C(=O)N[C@H](C)c2cccc3c2CCC3(F)F)c2n[nH]cc12 [Example 29, N-((R)-1-(1,1-difluoro-2,3-dihydro-1H-inden-4-yl)ethyl)-4-methoxy-5-(((S)-tetrahydrofuran-3-yl)oxy)-2H-indazole-7-carboxamide]",IC50,KRAS G12D/SOS1,100 to 500 nM
same,IC50,KRAS-WT/SOS1,< 100 nM
"COc1c(O[C@H]2CCOC2)cc(C(=O)N[C@H](C)c2cccc(C(F)(F)CO)c2)c2n[nH]cc12 [Example 30, N-((R)-1-(3-(1,1-difluoro-2-hydroxyethyl)phenyl)ethyl)-4-methoxy-5-(((S)-tetrahydrofuran-3-yl)oxy)-2H-indazole-7-carboxamide]",IC50,KRAS G12D/SOS1,100 to 500 nM
same,IC50,KRAS-WT/SOS1,100 to 500 nM
"COc1c(N2CCN(C)CC2)cc(C(=O)N[C@H](C)c2cccc(C(F)(F)CO)c2)c2[nH]ncc12 [Example 32, N-[(1R)-1-[3-(1,1-difluoro-2-hydroxyethyl)phenyl]ethyl]-4-methoxy-5-(4-methylpiperazin-1-yl)-1H-indazole-7-carboxamide]",IC50,KRAS G12D/SOS1,< 100 nM
same,IC50,KRAS-WT/SOS1,< 100 nM
COc1c(N2CCNCC2)cc(C(=O)N[C@H](C)c2cccc(C(F)(F)CO)c2)c2[nH]ncc12 [Example 33],IC50,KRAS G12D/SOS1,< 100 nM
same,IC50,KRAS-WT/SOS1,< 100 nM
"COc1c(C2CCN(C)CC2)cc(C(=O)N[C@H](C)c2cccc(C(F)(F)CO)c2)c2[nH]ncc12 [Example 34, N-[(1R)-1-[3-(1,1-difluoro-2-hydroxyethyl)phenyl]ethyl]-4-methoxy-5-(1-methylpiperidin-4-yl)-1H-indazole-7-carboxamide]",IC50,KRAS G12D/SOS1,< 100 nM
same,IC50,KRAS-WT/SOS1,< 100 nM
